# Data published in ChEMBL document CHEMBL1149952, “Inhibition of human leukocyte elastase (HLE) by novel bicyclic -lactams” (Bioorg Med Chem Lett, 1993).
# Assays:
# [1] = biological target: T1, Neutrophil elastase (Homo sapiens, UniProt P08246); test: Inhibitory activity against human leukocyte elastase (HLE) was determined
# T1 sequence (P08246 whole entry): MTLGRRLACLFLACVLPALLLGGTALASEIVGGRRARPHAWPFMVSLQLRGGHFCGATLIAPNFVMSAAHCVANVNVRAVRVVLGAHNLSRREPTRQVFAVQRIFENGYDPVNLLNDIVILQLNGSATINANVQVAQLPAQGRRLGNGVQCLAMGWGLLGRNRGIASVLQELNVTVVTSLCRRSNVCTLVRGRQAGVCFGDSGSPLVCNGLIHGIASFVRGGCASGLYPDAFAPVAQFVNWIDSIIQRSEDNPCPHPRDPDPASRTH
# [2] = biological target: T2, Neutrophil elastase (Homo sapiens) (UniProt P08246)
# T2 sequence (whole entry): T1 sequence (P08246 whole entry)
# Description: Alkaline hydrolysis constant for the compound was determined against human leukocyte elastase (HLE)
# [3] = biological target: T2, Neutrophil elastase (Homo sapiens); remark: listed apart in the source
# Description: Rate constant for the compound was determined against human leukocyte elastase (HLE)
# [4] = biological target: T2, Neutrophil elastase (Homo sapiens); remark: listed apart in the source
# Description: Rate constant for the compound was determined (k2/ki) against human leukocyte elastase (HLE)
SMILES,Ki [1] [µM],kOH [2] [M⁻¹ s⁻¹],k off [3] [s⁻¹],k on [4] [M⁻¹ s⁻¹]
C[C@@H](O)[C@@H]1C(=O)N2S/C(=C/C(=O)OC(C)(C)C)S[C@@H]12,> 100,10.3,–,–
C[C@@H](O)[C@H]1C(=O)N2C/C(=C/C(=O)OC(C)(C)C)S[C@H]12,4,–,–,–
C[C@@H](OC(=O)Cc1ccccc1)[C@H]1C(=O)N2S/C(=C/C(=O)OC(C)(C)C)S[C@H]12,0.4,0.04,0.0004,970
C[C@@H](O)[C@H]1C(=O)N2S/C(=C\C(=O)OC(C)(C)C)S[C@H]12,12,3,0.002,150
C[C@@H](O)[C@H]1C(=O)N2S/C(=C/C(=O)OC(C)(C)C)C[C@H]12,3.2,–,–,–
C[C@@H](O)[C@H]1C(=O)N2C/C(=C/C(=O)OC(C)(C)C)C[C@H]12,> 100,–,–,–
C[C@@H](O)[C@H]1C(=O)N2S/C(=C/C(=O)OC(C)(C)C)S[C@H]12,1.5,12,0.0014,1000
